Measurements as given in ChEMBL document CHEMBL1201862, “PubChem BioAssay data set” (2004).
The source made the active and inactive calls.

Experiments:
[1] = target: Cytochrome P450 2C9 (Homo sapiens, UniProt P11712)
[2] = cytotoxicity toward NIH3T3 fibroblasts, dose response, counter-screen, cell-based, ATP luminescence, mouse fibroblasts (AID 2010); assay type: functional;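 also: cells exposed to compound for about 90 hours before reading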
[3] = inhibitors of intracellular T. cruzi replication, confirmation, NIH3T3 host cells, beta-gal luminescence (AID 2044); assay type: functional, cell-based;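 also: intracellular parasites grown in NIH/3T3 mouse fibroblasts as host cells; luminescent beta-galactosidase reporter signal from transgenic T. cruzi replicating inside host cells; inhibitors lower the luminescence signal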
[4] = target: T1, Cytochrome P450 1A2 (Homo sapiens, UniProt P05177);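 also: PubChem cytochrome P450 panel assay, CYP1A2 panel member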
T1 sequence (P05177 whole entry): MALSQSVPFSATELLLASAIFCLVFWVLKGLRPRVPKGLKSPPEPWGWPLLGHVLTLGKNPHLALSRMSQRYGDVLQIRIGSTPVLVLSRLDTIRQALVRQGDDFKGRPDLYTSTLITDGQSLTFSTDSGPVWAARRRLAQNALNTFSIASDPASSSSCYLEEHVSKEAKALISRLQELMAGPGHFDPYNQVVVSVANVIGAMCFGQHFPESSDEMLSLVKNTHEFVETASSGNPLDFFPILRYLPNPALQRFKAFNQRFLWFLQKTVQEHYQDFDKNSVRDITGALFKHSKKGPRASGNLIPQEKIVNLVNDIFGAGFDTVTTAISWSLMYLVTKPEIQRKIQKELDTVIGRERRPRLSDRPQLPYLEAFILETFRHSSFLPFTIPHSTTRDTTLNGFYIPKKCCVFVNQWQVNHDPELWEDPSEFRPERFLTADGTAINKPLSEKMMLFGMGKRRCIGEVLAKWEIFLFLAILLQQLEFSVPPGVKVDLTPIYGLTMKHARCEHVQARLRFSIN

[5] = target: T2, Fatty acid synthase (Homo sapiens, UniProt P49327); test: FAS thioesterase domain inhibitors, dose response, biochemical, kinetic fluorescence intensity (AID 624326); assay type: functional;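 also: rate of fluorescence rise from hydrolysis of a fluorogenic O-methyl fluorescein ester substrate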
T2 sequence (P49327 whole entry, the tested form may be a part): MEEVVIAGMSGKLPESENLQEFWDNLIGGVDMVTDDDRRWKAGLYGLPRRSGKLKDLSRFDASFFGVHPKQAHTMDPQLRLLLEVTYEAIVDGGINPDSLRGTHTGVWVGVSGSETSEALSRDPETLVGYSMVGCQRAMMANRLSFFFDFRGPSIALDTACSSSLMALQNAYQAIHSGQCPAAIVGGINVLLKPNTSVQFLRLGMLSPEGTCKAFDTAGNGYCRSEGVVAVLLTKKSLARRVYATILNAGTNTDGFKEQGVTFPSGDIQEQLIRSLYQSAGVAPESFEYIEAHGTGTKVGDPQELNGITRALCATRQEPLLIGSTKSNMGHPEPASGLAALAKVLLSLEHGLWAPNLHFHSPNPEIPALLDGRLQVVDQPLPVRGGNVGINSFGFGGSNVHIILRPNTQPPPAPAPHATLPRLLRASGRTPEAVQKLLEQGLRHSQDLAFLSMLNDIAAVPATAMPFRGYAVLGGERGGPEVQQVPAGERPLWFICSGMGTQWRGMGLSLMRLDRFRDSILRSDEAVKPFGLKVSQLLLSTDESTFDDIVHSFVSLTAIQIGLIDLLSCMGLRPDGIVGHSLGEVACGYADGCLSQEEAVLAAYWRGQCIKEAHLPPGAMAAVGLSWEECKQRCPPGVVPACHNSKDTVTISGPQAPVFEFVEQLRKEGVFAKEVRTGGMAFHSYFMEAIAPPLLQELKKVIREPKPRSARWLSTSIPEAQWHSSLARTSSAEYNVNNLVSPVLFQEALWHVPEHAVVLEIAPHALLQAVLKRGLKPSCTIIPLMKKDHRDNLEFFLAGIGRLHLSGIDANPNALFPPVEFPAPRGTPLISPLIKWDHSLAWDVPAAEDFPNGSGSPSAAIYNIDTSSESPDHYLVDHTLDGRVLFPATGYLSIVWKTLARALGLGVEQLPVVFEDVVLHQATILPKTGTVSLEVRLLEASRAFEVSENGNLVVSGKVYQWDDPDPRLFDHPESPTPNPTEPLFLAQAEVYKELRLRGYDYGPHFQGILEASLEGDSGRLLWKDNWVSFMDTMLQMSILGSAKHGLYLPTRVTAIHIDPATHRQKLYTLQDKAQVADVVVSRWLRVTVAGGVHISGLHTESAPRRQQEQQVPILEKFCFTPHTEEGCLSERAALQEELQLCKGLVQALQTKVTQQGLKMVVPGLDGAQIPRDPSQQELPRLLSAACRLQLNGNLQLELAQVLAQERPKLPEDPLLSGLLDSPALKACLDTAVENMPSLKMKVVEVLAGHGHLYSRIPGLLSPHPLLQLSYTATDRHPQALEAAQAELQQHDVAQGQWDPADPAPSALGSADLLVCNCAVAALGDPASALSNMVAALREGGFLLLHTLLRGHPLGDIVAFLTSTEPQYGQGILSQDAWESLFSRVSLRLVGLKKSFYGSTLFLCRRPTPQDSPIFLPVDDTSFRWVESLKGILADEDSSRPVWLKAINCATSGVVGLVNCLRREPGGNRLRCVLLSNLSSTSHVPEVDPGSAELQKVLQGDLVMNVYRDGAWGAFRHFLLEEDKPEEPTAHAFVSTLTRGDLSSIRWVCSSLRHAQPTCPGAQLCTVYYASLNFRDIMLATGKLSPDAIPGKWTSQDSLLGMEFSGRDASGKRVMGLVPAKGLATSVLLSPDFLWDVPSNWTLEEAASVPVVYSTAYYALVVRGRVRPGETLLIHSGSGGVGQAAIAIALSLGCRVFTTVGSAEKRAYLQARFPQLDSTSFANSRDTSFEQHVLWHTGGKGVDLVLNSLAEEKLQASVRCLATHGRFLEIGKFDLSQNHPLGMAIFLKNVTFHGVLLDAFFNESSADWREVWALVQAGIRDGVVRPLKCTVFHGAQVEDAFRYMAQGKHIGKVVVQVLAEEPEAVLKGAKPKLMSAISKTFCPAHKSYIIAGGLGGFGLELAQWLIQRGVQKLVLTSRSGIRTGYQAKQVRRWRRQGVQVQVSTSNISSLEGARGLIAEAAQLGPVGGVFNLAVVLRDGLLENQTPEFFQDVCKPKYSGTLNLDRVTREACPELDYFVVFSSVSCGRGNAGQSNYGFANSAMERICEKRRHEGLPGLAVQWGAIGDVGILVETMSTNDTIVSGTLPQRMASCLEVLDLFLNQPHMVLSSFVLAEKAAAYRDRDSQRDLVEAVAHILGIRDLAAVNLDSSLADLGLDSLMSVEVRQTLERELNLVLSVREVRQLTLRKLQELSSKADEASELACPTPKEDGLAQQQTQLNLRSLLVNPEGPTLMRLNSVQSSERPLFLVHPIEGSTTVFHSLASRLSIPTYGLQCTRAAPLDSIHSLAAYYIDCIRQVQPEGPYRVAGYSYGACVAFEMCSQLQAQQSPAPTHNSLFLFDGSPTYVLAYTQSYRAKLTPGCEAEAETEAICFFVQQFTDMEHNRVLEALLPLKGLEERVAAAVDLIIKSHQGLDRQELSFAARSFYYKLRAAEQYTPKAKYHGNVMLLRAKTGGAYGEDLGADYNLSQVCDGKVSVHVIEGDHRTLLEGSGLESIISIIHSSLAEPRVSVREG

[6] = target: T3, Long-chain-fatty-acid--AMP ligase FadD28 (Mycobacterium tuberculosis, UniProt P9WQ59); test: Fluorescence polarization aasay to screen for inhibitors that compete for the binding of FadD28 to a bisubstrate Measured in Biochemical System Using Plate Reader - 2147-01_Inhibitor_Dose_CherryPick_Activity.; assay type: functional, Mycobacterium tuberculosis H37Rv
T3 sequence (P9WQ59 whole entry): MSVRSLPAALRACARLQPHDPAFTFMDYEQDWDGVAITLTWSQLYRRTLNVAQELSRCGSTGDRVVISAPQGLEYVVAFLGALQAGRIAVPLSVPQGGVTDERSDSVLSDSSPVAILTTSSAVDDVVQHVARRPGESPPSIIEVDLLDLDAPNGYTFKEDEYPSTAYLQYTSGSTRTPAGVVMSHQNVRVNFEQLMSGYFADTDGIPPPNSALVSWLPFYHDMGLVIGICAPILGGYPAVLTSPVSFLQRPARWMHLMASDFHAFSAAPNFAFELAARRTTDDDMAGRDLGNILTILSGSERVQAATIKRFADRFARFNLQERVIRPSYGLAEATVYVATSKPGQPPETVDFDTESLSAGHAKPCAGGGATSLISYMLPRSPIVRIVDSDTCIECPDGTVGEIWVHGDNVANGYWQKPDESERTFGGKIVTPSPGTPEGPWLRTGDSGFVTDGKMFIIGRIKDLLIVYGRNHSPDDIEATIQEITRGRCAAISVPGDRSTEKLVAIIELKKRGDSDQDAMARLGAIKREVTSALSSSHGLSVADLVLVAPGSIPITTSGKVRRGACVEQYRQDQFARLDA

[7] = target: T2, Fatty acid synthase; test: FAS thioesterase domain inhibitors, dose response, biochemical, endpoint fluorescence intensity, uHTS hits (AID 624327); assay type: functional;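 also: fluorescence from hydrolysis of an O-methyl fluorescein acyl ester substrate by the enzyme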
[8] = target: T4, Aminopeptidase N (Plasmodium falciparum FcB1/Columbia, UniProt O96935); test: P. falciparum M1AAP inhibitors, biochemical, fluorogenic H-Leu-NHMec substrate, 1536-well (AID 1445); parameters: species or system Plasmodium falciparum 3D7, 3D7
T4 sequence (O96935 whole entry): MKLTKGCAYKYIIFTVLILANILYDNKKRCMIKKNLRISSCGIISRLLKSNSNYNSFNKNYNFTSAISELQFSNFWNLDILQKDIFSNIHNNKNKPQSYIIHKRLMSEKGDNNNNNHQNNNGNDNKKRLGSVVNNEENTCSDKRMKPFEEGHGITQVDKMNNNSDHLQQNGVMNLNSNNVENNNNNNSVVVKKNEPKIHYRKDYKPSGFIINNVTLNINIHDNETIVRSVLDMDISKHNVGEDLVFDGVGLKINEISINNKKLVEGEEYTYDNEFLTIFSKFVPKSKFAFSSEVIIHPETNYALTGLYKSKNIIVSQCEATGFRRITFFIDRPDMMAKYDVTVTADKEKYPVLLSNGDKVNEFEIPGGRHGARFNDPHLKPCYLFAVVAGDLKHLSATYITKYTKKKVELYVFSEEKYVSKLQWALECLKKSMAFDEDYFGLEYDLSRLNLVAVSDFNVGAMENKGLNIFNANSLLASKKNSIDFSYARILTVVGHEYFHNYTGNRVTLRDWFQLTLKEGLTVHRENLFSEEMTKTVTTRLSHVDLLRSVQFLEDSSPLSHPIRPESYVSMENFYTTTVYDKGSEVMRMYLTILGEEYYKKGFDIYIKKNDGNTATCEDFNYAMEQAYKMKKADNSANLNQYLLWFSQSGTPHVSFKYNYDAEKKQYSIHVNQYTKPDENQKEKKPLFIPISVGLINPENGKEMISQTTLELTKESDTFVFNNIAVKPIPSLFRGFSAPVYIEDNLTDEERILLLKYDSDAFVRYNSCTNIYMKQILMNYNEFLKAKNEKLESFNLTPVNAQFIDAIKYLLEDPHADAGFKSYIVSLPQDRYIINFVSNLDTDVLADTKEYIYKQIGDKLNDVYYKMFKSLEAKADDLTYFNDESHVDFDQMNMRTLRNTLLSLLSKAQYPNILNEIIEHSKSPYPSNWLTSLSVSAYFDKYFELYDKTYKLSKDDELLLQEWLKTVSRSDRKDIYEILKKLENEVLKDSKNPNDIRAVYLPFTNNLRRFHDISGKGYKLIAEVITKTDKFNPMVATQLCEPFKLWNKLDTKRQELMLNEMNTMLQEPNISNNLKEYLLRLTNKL

[9] = system: HeLa; test: HeLa cell cytotoxicity, dose response, cytotoxicity control for MITF activator project, CellTiter-Glo luminescence, cherry-pick samples (AID 540259); assay type: functional, cell-based; conditions: Homo sapiens
[10] = target: DNA dC->dU-editing enzyme APOBEC-3G (Homo sapiens, UniProt Q9HC16); assay type: functional;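 also: Dose-response counterscreen measuring inhibition of APOBEC3G DNA deaminase activity, run while confirming APOBEC3A inhibitors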
DNA dC->dU-editing enzyme APOBEC-3G, sequence (Q9HC16 whole entry): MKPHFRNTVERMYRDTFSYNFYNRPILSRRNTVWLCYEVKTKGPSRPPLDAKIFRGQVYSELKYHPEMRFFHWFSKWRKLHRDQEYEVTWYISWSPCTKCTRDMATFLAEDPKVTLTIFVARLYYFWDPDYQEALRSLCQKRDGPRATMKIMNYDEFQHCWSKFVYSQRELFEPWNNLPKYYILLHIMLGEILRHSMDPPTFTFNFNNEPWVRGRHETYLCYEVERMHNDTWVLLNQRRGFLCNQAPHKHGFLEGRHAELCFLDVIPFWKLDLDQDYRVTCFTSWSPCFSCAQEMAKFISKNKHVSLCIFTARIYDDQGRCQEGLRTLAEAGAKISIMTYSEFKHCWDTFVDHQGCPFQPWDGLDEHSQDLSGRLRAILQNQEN

[11] = target: DNA dC->dU-editing enzyme APOBEC-3A (Homo sapiens, UniProt P31941); test: Dose Response confirmation of small molecule APOBEC3A DNA Deaminase Inhibitors via a fluorescence-based single-stranded DNA deaminase assay. [Related pubchem assays (depositor defined):AID493011, AID493024]; assay type: functional
DNA dC->dU-editing enzyme APOBEC-3A, sequence (P31941 whole entry): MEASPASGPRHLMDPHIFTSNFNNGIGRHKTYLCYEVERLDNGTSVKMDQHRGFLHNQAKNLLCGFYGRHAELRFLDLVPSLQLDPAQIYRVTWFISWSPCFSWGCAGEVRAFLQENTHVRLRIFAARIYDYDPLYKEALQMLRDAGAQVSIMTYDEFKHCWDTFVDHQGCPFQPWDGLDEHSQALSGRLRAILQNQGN

[12] = system: BJ; test: cells; assay type: functional, cell-based; conditions: Homo sapiens
[13] = target: Cytochrome P450 2C19 (Homo sapiens, UniProt P33261); test: Cytochrome panel assay with activity outcomes. Panel member name: p450-cyp2c19 Compounds with AC50 equal or less than 10 uM are considered active; assay type: functional; conditions: read-out: AC50
[14] = cytotoxicity in HEK-293T cells, dose response, cytotoxicity control for TCR NF-kB inhibitor project, luminescence, T-cell screen hits (AID 489026); assay type: functional, cell-based;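 also: cells exposed to compound about 14 hours before the viability readout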
[15] = target: Large T antigen (Simian virus 40, UniProt P03070); assay type: functional, Betapolyomavirus macacae;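 also: Confirmatory-stage PubChem screen for compounds that inhibit SV40 T antigen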
Large T antigen, sequence (P03070 whole entry): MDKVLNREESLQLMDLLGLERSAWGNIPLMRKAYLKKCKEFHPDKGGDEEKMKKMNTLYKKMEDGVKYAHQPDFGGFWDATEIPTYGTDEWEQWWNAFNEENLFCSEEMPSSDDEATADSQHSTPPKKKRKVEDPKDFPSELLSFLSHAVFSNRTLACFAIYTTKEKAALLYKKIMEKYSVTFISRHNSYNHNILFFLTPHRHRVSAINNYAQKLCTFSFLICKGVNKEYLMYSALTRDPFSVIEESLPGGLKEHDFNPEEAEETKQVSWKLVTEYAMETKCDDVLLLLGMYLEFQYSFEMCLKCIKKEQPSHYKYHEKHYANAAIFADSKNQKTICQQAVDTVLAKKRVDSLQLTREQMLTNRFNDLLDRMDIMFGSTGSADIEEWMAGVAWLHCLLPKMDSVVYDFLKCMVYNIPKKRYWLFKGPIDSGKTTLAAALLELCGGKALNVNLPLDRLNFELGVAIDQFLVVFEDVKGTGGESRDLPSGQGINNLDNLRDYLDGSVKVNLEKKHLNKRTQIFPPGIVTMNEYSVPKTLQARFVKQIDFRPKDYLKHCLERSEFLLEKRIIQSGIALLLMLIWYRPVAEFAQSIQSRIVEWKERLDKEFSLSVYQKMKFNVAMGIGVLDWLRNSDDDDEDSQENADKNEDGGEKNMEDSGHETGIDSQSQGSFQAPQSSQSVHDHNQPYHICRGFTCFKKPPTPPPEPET

[16] = target: Induced myeloid leukemia cell differentiation protein Mcl-1 (Homo sapiens, UniProt Q07820); assay type: functional
[17] = target: Cytochrome P450 3A4 (Homo sapiens, UniProt P08684);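 also: CYP3A4 tested as one member of a cytochrome P450 panel screen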
Cytochrome P450 3A4, sequence (P08684 whole entry): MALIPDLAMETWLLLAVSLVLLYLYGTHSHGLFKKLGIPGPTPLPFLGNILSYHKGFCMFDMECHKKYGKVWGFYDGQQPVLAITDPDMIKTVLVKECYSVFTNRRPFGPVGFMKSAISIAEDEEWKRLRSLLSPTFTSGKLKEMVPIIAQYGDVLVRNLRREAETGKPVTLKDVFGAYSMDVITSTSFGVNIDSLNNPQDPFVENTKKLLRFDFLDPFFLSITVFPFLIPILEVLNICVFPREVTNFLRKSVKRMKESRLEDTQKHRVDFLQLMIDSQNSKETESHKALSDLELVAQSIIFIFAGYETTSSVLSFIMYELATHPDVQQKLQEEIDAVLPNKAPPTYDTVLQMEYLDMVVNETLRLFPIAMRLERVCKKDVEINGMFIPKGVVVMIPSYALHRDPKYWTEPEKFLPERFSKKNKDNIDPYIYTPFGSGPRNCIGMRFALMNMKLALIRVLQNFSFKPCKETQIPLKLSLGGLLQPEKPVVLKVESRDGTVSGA

[18] = cells; assay type: functional, cell-based
[19] = target: Nonstructural protein 1 (Influenza A virus, UniProt Q194T2); assay type: functional, Influenza A virus (A/California/07/2009(H1N1))
Nonstructural protein 1, sequence (Q194T2 whole entry): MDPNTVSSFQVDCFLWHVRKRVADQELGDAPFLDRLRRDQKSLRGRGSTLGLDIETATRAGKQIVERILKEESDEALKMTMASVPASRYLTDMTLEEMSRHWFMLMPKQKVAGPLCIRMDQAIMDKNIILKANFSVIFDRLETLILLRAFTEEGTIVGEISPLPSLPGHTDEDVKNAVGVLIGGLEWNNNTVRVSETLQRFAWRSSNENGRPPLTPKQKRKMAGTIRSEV

[20] = target: T5, Microphthalmia-associated transcription factor (Homo sapiens, UniProt O75030); test: TRPM1 promoter luciferase signal decrease, dose response, MITF inhibitor project, cell-based, SK-MEL-5, cherry-picked, set 3 (AID 493073); assay type: functional
T5 sequence (O75030 whole entry): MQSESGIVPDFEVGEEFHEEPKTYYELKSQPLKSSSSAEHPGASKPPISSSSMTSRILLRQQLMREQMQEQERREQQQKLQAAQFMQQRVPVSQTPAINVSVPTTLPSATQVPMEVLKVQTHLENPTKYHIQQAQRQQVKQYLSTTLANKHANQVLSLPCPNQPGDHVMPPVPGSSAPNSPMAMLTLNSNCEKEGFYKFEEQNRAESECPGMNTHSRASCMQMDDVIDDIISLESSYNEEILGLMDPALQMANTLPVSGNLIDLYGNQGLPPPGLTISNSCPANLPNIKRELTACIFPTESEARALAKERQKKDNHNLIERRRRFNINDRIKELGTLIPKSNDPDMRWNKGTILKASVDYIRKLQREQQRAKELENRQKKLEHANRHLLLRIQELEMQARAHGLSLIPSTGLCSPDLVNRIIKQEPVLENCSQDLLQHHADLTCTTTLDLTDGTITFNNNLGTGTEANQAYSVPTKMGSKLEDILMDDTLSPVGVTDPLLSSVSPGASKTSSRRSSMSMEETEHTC

[21] = system: Streptococcus sp. 'group A'; test: growth inhibition of control SK(-) GAS strain, dose response, counter-screen for streptokinase expression inhibitor project, luminescence, kanamycin, BacTiterGlo, confirmation (AID 1900); assay type: functional, organism-based
[22] = system: Streptococcus; test: Group A Streptococcus viability loss, dose response, counter-screen for streptokinase expression inhibitor project, luminescence, BacTiterGlo (AID 1915); assay type: functional, organism-based;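 also: potency for reduction of bacterial viability or growth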
[23] = cells; assay type: functional, cell-based; remark: listed apart in the source
[24] = target: T6, Carboxy-terminal domain RNA polymerase II polypeptide A small phosphatase 1 (Homo sapiens, UniProt Q9GZU7); test: inhibitors of CTDSP1, concentration-response testing, biochemical assay, absorbance-based, actives from ultra-high-throughput screening (AID 540297); assay type: functional
T6 sequence (Q9GZU7 whole entry): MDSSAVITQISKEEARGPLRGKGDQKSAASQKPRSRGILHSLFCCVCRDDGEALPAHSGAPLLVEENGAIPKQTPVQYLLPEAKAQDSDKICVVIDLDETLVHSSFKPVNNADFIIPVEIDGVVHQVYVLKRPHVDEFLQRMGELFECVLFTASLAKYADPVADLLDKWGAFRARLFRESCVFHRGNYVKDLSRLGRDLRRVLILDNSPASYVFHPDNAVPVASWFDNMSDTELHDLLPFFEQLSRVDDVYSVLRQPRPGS

Cytochrome P450 2C9, sequence (P11712 whole entry): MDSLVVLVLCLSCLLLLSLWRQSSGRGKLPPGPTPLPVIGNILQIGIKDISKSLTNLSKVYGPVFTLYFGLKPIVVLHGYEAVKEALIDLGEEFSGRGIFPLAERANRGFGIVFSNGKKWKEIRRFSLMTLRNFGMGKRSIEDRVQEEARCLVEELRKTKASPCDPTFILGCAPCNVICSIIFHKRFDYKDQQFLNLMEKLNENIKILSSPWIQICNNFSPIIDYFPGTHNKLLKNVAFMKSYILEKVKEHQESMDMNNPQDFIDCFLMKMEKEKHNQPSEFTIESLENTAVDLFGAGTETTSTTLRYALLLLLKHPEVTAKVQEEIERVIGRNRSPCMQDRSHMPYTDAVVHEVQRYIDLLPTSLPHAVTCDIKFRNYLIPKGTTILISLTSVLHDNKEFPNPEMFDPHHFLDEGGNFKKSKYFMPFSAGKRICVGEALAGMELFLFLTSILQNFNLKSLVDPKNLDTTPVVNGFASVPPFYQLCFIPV

In the case of O=C(Nc1ncc(Cc2cc(Cl)ccc2Cl)s1)c1ccc([N+](=O)[O-])cc1, the AC50 [1] is reported as “inconclusive”, the EC50 [2] is reported as > 30 µM (not active) and the EC50 [3] is reported as 1.31 µM (active). The AC50 [4] was 5.62 µM (inconclusive).
For C=CCOc1c(Br)cc(/C=N/Nc2ccc(C(=O)O)cc2)cc1OCC, the IC50 [5] was 10.5 µM (active), the AC50 [6] was 62.7 µM (active) and the IC50 [7] was 12.6 µM (active).
With Cc1ccc(NC(=O)C(C)N2C(=O)c3ccccc3C2=O)cc1S(=O)(=O)N1CCOCC1 (stereo not given) the IC50 [8] was 115 µM (active).
With CS(=O)(=O)N1CCc2cc(C(=O)Nc3ccccc3Br)ccc21 the AC50 [9] was > 350 µM (inactive).
With Cc1cccc(NC(=O)N(Cc2cc3cc(C)ccc3[nH]c2=O)CC2COCCO2)c1 (stereo not given) the IC50 [8] was 45.9 µM (active).
With CN1CCN(S(=O)(=O)c2cccc(C(=O)N(C)CC(=O)Nc3ccc(F)c(F)c3F)c2)CC1 the IC50 [10] was 5.4 µM (active) and the IC50 [11] was 3.94 µM (active).
With Cc1ccc(Nc2nc(-c3c(C)nc4ncccn34)cs2)cc1 the AC50 [1] was “inconclusive”, the EC50 [12] was 60.6 µM (active) and the AC50 [13] was 0.0316 µM (inconclusive). For the same molecule, the IC50 [14] was 36.5 µM (inactive).
In the case of O=C1NN(c2ccccc2)C(=O)/C1=C\c1ccc(-c2cc([N+](=O)[O-])ccc2O)o1, the AC50 [6] is reported as 8.08 µM (active), the IC50 [15] is reported as 20.7 µM (active) and the IC50 [16] is reported as 10.7 µM (active).
With Cc1ccc2oc(Nc3nc(C)c(C)c(C)n3)nc2c1 the AC50 [9] was 192 µM (active).
For CC(C)CNC(=O)CCCc1c[nH]c2ccccc12.O=C(O)C(=O)O, the AC50 [1] was “inconclusive”.
With CCN(N=O)c1ccc(C=C2C=Cc3ccccc32)cc1 the AC50 [9] was 68.9 µM (active).
In the case of Cc1ccccc1S(=O)(=O)Oc1ccc2ccc(O)cc2c1, the AC50 [9] is reported as 49.4 µM (active).
For Cc1ccc(S(=O)(=O)N2CCC(C(=O)NCCCOC(C)C)CC2)cc1, the AC50 [17] was 25.1 µM (inconclusive) and the AC50 [1] was “inconclusive”.
In the case of Clc1ccc(-c2ccc(SCc3ccccn3)nn2)cc1, the AC50 [9] is reported as 50.7 µM (active).
For O=C(N/N=C/c1cc(Br)ccc1O)c1ccncc1, the EC50 [18] was > 350 µM (not active), the IC50 [19] was 5.51 µM (active) and the IC50 [8] was 7.95 µM (active). For the same molecule, the AC50 [20] was 9.36 µM (active), the EC50 [21] was 3 µM (active) and the EC50 [22] was 3.78 µM (active). For the same molecule, the EC50 [23] was 17.7 µM (active).
For O=C(N/N=C/C1CCCCC1)c1ccccn1, the AC50 [1] was “inconclusive” and the AC50 [4] was 17.8 µM (inconclusive).
For CSc1nnc(-c2ccncc2)n1CCCN1CCCC1=O, the IC50 [10] was 3.35 µM (active) and the IC50 [11] was 2.76 µM (active).
With C[n+]1ccc(C(=O)Nc2ccccc2Cl)cc1 the IC50 [24] was 7.68 µM (active), the IC50 [10] was 1.72 µM (active) and the IC50 [11] was 2.01 µM (active).
